Source: article PMC10536189 (Microorganisms, 2023)
“Also recorded” adds a separate entry of the source.

Test system: multidrug-resistant (MDR) Mycobacterium tuberculosis
Type: cell-based
Details: Peptide 14D at 1 µg/mL; low inoculum

wkivfwwrr-CONH2 [Peptide 14D]
Effect on growth of multidrug-resistant MTB: reducing the lag time before growth starts; also recorded: increased growth
